# Experimental data taken from patent US20070274947A1, “Antisense Oligonucleotides Directed to Ribonucleotide Reductase R1 and Uses Thereof in the Treatment of Cancer” (priority 2003, published 2007).
# Assays:
# [1] = Toxicokinetics in repeat dose (14-day and 21-day) continuous infusion studies in monkeys; settings: monkey
# [2] = tested on: Caki-1 human kidney cancer cells; assay: Caki-1 renal tumor growth in SCID/beige mice; type: in vivo; settings: SCID/beige mice (NK, T and B cell deficient); 10 mg/kg/2 days i.v.; 32 days
# Experimental: To address whether SEQ ID NO:1 anti-tumor activity is NK mediated, tumor xenograft growth was assessed in SCID/beige mice that are NK, T and B cell deficient. Caki-1 human kidney cancer cells (5×10^6 cells in 100 μl of PBS) were subcutaneously injected into the right flank of 6-7 weeks old female SCID/beige mice. After the size of tumor reached an approximate volume of 100 mm^3, 7 days post tumor cell injection, SEQ ID NO:1 and SEQ ID NO:1-SCR were administered (10 mg/kg/2 days, i.v.). Control animals received saline alone for the same period. Caliper measurements at 1 week intervals were used to calculate tumor volumes. Each point in FIG. 3 (top) represents mean tumor volume calculated from 10 animals per experimental group. After 32 days the mice were sacrificed and the tumors weighed. Each bar in FIG. 3 (bottom) represents the mean tumor weight and standard error calculated for each treatment group.
substance,measurement,setting,value
5′-CTCTAGCGTCTTAAAGCCGA-3′ (CTCTAGCGTCTTAAAGCCGA; chemistry not given here) [SEQ ID NO:1],AUC estimates versus duration and dose,[1]; Part 1 and Part 2 Recovery animals,proportional with the duration of infusion and the administered dose level
same,sex differences in toxicokinetic profile,[1]; Parts 1 and 2,no apparent sex-differences
same,tumor volume and tumor weight,[2],highly effective
